Article PMC11855827, “High-Throughput Screening of Five Compound Libraries for Anthelmintic Activity and Toxicity Leads to the Discovery of Two Flavonoid Compounds” (International Journal of Molecular Sciences, 2025)
Where “and” joins values, the source holds several entries; their conditions need not be identical. Identical values can stand only once. Like-named read-outs stand apart in the source and are kept apart here.

Tested on: C. elegans
[1] = Table S2, C. elegans SS assay, 110 μM, 0 h, averages of 4 data points
[2] = Table S2, C. elegans SS assay, 110 μM, 24 h, averages of 4 data points

Compound | Percentage of motility inhibition 0 h [1] [%] | Percentage of motility inhibition 24 h [2] | Percentage of motility inhibition 0 h (110 µM) [%] | Percentage of motility inhibition 24 h (110 µM) [%]
O=C(O)[C@H]1O[C@@H](Oc2cc(O)c3c(=O)cc(-c4ccc(O)cc4)oc3c2)[C@H](O)[C@@H](O)[C@@H]1O [Apigenin‐7‐glucuronide] | 23 | 3% |  | 
Cn1c[n+]([C@@H]2O[C@H](CO)[C@@H](O)[C@H]2O)c2nc(N)[nH]c(=O)c21 [7‐Methylguanosine] | 0 | 0% |  | 
COc1ccc([C@@H]2CC(=O)c3c(O)cc(O)cc3O2)cc1O (racemic) [(Rac)‐Hesperetin] | 0 | 0% |  | 
CC(C)=CCN=C(N)N.Cl [Galegine (hydrochloride)] | 0 | 0% |  | 
COc1ccc(C[C@@H]2COc3c(C)c(O)c(C)c(O)c3C2=O)cc1 [Methylophiopogonanone B] | 0 | 21% |  | 
C=C(C)C(=O)O[C@H]1CC2=C[C@@H](C/C(C)=C/[C@H]3OC(=O)C(=C)[C@H]13)OC2=O [Deoxyelephantopin] | 0 | 9% |  | 
Clc1ccc(COC(Cn2ccnc2)c2ccc(Cl)cc2Cl)cc1.O=[N+]([O-])O (stereo not drawn) [Econazole (nitrate)] | 35 | 13% |  | 
C[C@@H]1O[C@@H](c2c(O)c([C@@H]3O[C@H](CO)[C@@H](O)[C@H](O)[C@H]3O)c3oc(-c4ccc(O)cc4)cc(=O)c3c2O)[C@H](O)[C@H](O)[C@H]1O [Isoviolanthin] | 21 | 2% |  | 
CC(C)[C@H](N)C(=O)OCCOCn1cnc2c(=O)nc(N)[nH]c21.Cl [Valacyclovir (hydrochloride)] | 38 | 9% |  | 
C=C1C(=O)O[C@@H]2C[C@@]3(C)CCC[C@H](C)C3=C[C@H]12 [Alantolactone] | 6 | 29% |  | 
CCC(C)(C)c1ccc(CC(C)CN2C[C@@H](C)O[C@@H](C)C2)cc1.Cl (stereo partly drawn) [Amorolfine (hydrochloride)] | 20 | 9% |  | 
CC(=O)O[C@@]12CO[C@@H]1C[C@H](O)[C@@]1(C)C(=O)[C@H](O)C3=C(C)[C@@H](OC(=O)[C@H](O)[C@@H](NC(=O)c4ccccc4)c4ccccc4)C[C@@](O)([C@@H](OC(=O)c4ccccc4)[C@H]21)C3(C)C [10-Deacetyltaxol] | 17 | 0% |  | 
CCc1ccc(O)c2cc3c(nc12)-c1cc2c(c(=O)n1C3)COC(=O)[C@]2(O)CC [12‐Ethyl‐9‐hydroxycamptothecin] | 16 | 27% |  | 
Nc1ncnc2nc[nH]c12.Nc1ncnc2nc[nH]c12.O=S(=O)(O)O [Adenine (hemisulfate)] | 3 | 5% |  | 
CCN(CC)C(=O)N1CCN(C)CC1.O=C(O)CC(O)(CC(=O)O)C(=O)O [Diethylcarbamazine (citrate)] | 13 | 17% |  | 
Ingenol-5,20-acetonide | 4 | 6% |  | 
CCCCC/C=C\C/C=C\CCCCCCCC(=O)NCc1ccccc1 [N‐Benzyllinoleamide] | 0 | 0% |  | 
COc1ccc([C@@H]2CC(=O)c3c(O)cc(O[C@@H]4O[C@H](CO[C@@H]5O[C@@H](C)[C@H](O)[C@@H](O)[C@H]5O)[C@@H](O)[C@H](O)[C@H]4O)cc3O2)cc1O [Hesperidin] |  | 2% and 0% |  | 
Cc1onc(-c2ccccc2Cl)c1C(=O)N[C@@H]1C(=O)N2[C@@H]1SC(C)(C)[C@@H]2C(=O)[O-].O.[Na+] [Cloxacillin (sodium monohydrate)] | 14 | 4% |  | 
CC(C)=CCC[C@@](O)(CO[C@@H]1O[C@H](CO)[C@@H](O)[C@H](O)[C@H]1O)[C@H]1CC[C@]2(C)[C@@H]1CC[C@@H]1[C@@]3(C=O)CC[C@H](O[C@@H]4OC[C@H](O)[C@H](O[C@@H]5OC[C@@H](O)[C@H](O)[C@H]5O)[C@H]4O[C@@H]4O[C@@H](C)[C@H](O)[C@@H](O)[C@H]4O)C(C)(C)[C@@H]3CC[C@]12C [Gypenoside XLIX] | 3 | 6% |  | 
O=C(O)[C@H]1O[C@@H](Oc2cc(-c3cc(=O)c4c(O)cc(O)cc4o3)ccc2O)[C@H](O)[C@@H](O)[C@@H]1O [Luteolin‐3‐O‐beta‐D‐glucuronide] | 0 | 26% |  | 

Compound | Percentage of motility inhibition 0 h [1] [%] | Percentage of motility inhibition 24 h [2] | Percentage of motility inhibition 0 h (110 µM) [%] | Percentage of motility inhibition 24 h (110 µM) [%]
C[C@@H]1O[C@@H](O[C@H]2[C@H](O[C@H]3CC[C@@]4(C)[C@@H](CC[C@]5(C)[C@@H]4CC=C4[C@@H]6CC(C)(C)CC[C@]6(C(=O)O)CC[C@]45C)[C@]3(C)CO)OC[C@H](O[C@@H]3O[C@H](CO)[C@@H](O)[C@H](O)[C@H]3O)[C@@H]2O)[C@H](O)[C@H](O)[C@H]1O [Pulsatilla saponin D] | 0 | 0% |  | 
C=C(C)[C@@H]1CCC2=CCC[C@@H](C)[C@]2(C)C1 [Valencene] | 3 | 4% |  | 
C[C@@H]1O[C@H]2O[C@H]3[C@@H](OC[C@H](O)[C@@H]3O)OC(=O)[C@]34CCC(C)(C)C[C@H]3C3=CC[C@@H]5[C@@]6(C)C[C@H](O)[C@H](O[C@@H]7O[C@H](CO)[C@@H](O)[C@H](O)[C@H]7O[C@@H]7O[C@@H](COC(=O)C[C@](C)(O)CC(=O)O[C@@H]1[C@@H](O[C@@H]1OC[C@@H](O)[C@H](O)[C@H]1O)[C@H]2O)[C@H](O)[C@@H](O)[C@@H]7O)[C@@](C)(CO)[C@@H]6CC[C@@]5(C)[C@]3(C)C[C@H]4O [Tubeimoside III] | 0 | 36% |  | 
CN1C2=C3N=c4ccccc4=C3CCN2C(=O)c2ccccc21.Cl [Dehydroevodiamine (hydrochloride)] | 8 | 1% |  | 
COc1cc2oc(-c3ccc(O)cc3)cc(=O)c2c(O)c1[C@@H]1O[C@H](CO)[C@@H](O)[C@H](O)[C@H]1O[C@@H]1O[C@H](CO)[C@@H](O)[C@H](O)[C@H]1O [Spinosin] |  |  | 2 | 6
CC12CCC(CC1=O)C2(C)C (stereo not drawn) [(+)‐Camphor] | 31 | 1% |  | 
C=C1[C@H](OC(=O)c2ccccc2)C[C@H]2[C@@H](/C=C(\C)C(=O)[C@@]3(OC(C)=O)C[C@H](C)[C@H](OC(=O)c4ccccc4)[C@@H]3[C@H]1OC(C)=O)C2(C)C [Euphorbia Factor L2] | 27 | 21% |  | 
C[C@@H]1O[C@@H](O[C@H]2[C@H](O)[C@@H](O)[C@H](OC[C@H]3O[C@@H](OC(=O)[C@]45CCC(C)(C)C[C@H]4C4=CC[C@@H]6[C@@]7(C)CC[C@H](O[C@@H]8OC[C@H](O)[C@H](O)[C@H]8O)[C@@](C)(CO)[C@@H]7CC[C@@]6(C)[C@]4(C)CC5)[C@H](O)[C@@H](O)[C@@H]3O)O[C@@H]2CO)[C@H](O)[C@H](O)[C@H]1O [Hederacoside D] | 2 | 2% |  | 
CN[C@@H]1[C@@H](O)[C@@H](O[C@@H]2[C@@H](O)[C@H](O[C@H]3OC(CN)=CC[C@H]3N)[C@@H](N)C[C@H]2N)OC[C@]1(C)O.CN[C@@H]1[C@@H](O)[C@@H](O[C@@H]2[C@@H](O)[C@H](O[C@H]3OC(CN)=CC[C@H]3N)[C@@H](N)C[C@H]2N)OC[C@]1(C)O.O=S(=O)(O)O.O=S(=O)(O)O.O=S(=O)(O)O.O=S(=O)(O)O.O=S(=O)(O)O [Sisomicin (sulfate)] | 2 | 0% |  | 
CCCc1ncc(C[n+]2ccccc2C)c(N)n1.Cl.[Cl-] [Amprolium (hydrochloride)] | 12 | 0% |  | 
COC(=O)C1=CO[C@@H](O[C@@H]2O[C@H](CO)[C@@H](O)[C@H](O)[C@H]2O)[C@@H]2[C@@H](C)CC(=O)[C@]12O [Hastatoside] | 0 | 8% |  | 
O=C(/C=C/c1ccc(O)cc1)c1ccc(O[C@@H]2O[C@H](CO)[C@@H](O)[C@H](O)[C@H]2O)cc1O [Neoisoliquiritin] | 17 | 11% |  | 
CC(C(O)c1ccc(O)cc1)N1CCC(Cc2ccccc2)CC1.CC(C(O)c1ccc(O)cc1)N1CCC(Cc2ccccc2)CC1.O=C(O)C(O)C(O)C(=O)O (stereo not drawn) [Ifenprodil (ta rtrate)] | 12 | 15% |  | 
COc1ccc(-c2coc3cc(O)cc(O)c3c2=O)cc1 [Biochanin A] | 7 | 0% |  | 
CC1(C)S[C@@H]2[C@H](NC(=O)[C@H](N)c3ccccc3)C(=O)N2[C@H]1C(=O)[O-].[Na+] [Ampicillin (sodium)] | 24 | 1% |  | 
C/C=C1\C[C@@H](C)[C@](O)(CO)C(=O)OCC2=CCN3CC[C@@H](OC1=O)[C@@H]23 [Usaramine] | 31 | 21% |  | 
O=C1CCCC2C3CCC[N+]4([O-])CCCC(CN12)C34 (stereo not drawn) [Oxysophoridine] | 18 | 9% |  | 
COc1cc2c(cc1O)CC[N+](C)(C)[C@@H]2Cc1ccc(O)cc1.[OH-] [Lotusine (hydroxide)] | 4 | 0% |  | 
COc1cc2c(cc1O)C[C@@H]1NCCc3cc(OC)c(O)c-2c31 [Norisoboldine] | 0 | 0% |  | 
COc1cc2c(cc1OC)-c1c(C)c3ccc(OC)c(OC)c3c[n+]1CC2.[Cl-] [Dehydrocorydaline (chloride)] | 0 | 0% |  | 
